Measurements: US5801254A, “Arteminolide derivatives and process for the manufacture thereof” (Korea Institute of Science and Technology, priority 1996, dated 1998)
Where two headings read alike, the source gives them in different places.

Tests used:
[1] = system: angiogenesis, chorioallantoic membrane (CAM); experiment: Angiogenesis suppressing activity, chorioallantoic membrane (CAM) assay; assay type: in vivo; settings: fertilized chicken egg, read-out: IC50 values for Angiogenesis Suppression
Description: Angiogenesis was determined in accordance with the chorioallantoic membrane(CAM) assay method of Kusaka et al. described in Biochem. Biophy. Res. Comm., 174, 1070(1991) by using a fertilized chicken egg.
A fertilized chicken egg(Pulmuwon co., Korea) was incubated at 37°-38° C. and a humidity of more than 90%. Here, 0 day-embryo means that the fertilized egg had been storaged at 18° C. for no more than 3-4 days since laying.
The pointed end of the fertilized egg was scratched with a knife, laid horizontally, the scratched site was punctured with a 5 ml syringe and 2 ml of albumin was extracted from the fertilized egg. The puncture hole was then sealed with a glass-tape. The fertilized egg, laid such that the sealed hole is located at the bottom, was incubated under the same condition described above.
The other end of the fertilized egg where the air sac is located, i.e., the end opposite to the hole site was opened, a window having a diameter of 2-3 cm was installed therein, the window was sealed with a glass-tape, and the incubation was resumed.
At this time, a chorioalletoic membrane(CAM) of 2-5 mm diameter develop. A arteminolide sample was dissolved in distilled water or ethanol, 10 μl of the sample solution was dropped on quartered Thermanox coverslip(Nunc, Co.,) and dried in a clean bench. The sealing glass-tape was removed, the treated Thermanox coverslip obtained above was laid on the CAM and then sealed with a glass-tape. All tools used in the above procedure were pre-sterilized with 70% ethanol.
The sealing glass-tape was removed. 1 ml of Intralipose(fat emulsion, Green Cross co., Korea) was taken with syringe, removed an air bobble therefrom and injected into an area below the CAM.
Angiogenesis suppressing activity was then calculated in accordance with the following equation: [formula]

[2] = Solubility; assay type: physicochemical
[3] = target: T1, farnesyl-protein transferase (FPTase) (Rattus norvegicus, UniProt Q02293+Q04631); experiment: Farnesyl-protein transferase inhibiting activity, scintillation proximity assay with 3H-FPP and biotin-lamin B peptide; assay type: biochemical; settings: read-out: IC50 values for FPTase Inhibition
T1 construct: a cerebrum obtained from white rat; from tissue; host or cells: rat cerebrum (male Sprague-Dawley, 100-150 g), homogenate, partially purified on Q Sepharose Fast Flow
Description: First, a cerebrum obtained from white rat(male Spraguo Dowley 100-150 g) was washed with physiological saline solution and homogenized. The homogenized solution was centrifuged and partially purified by using Q sepharose fast flow column to obtain farnesyl protein transferase(FPTase).
10 μl of a sample, 40 μl of FPTase obtained above, 10 μl of an assay buffer(50 mM Tris-HCl, pH 7.5, 25 mM MgCl2, 2 mM KCl, 5 mM DTT, 5 mM Na2 HPO4, 0.01% Triton X-100), 20 μl of diluted ^3 H-FPP and 20 μl of biotin-lamin B peptide were mixed together and the resulting mixture was reacted at room temperature for 30 minutes. 150 μl of SPA bead/stop reagent solution was added to the mixture and the enzymatic activity was determined by examining the extent of biotin lamin B peptide farneslyation, expressed by a unit of count per minute(CPM), with a liquid scintillation counter.

[4] = MeOH, acetone, chloroform, DMSO

| Compound | IC50 ([1]; Gallus gallus) | Solubility [2, 4] | Solubility ([2]; hexane, H2O) | IC50 [3] | IC50 ([1]; listed as C) | IC50 ([3]; listed as C) | IC50 ([1]; listed as E) | IC50 ([3]; listed as E) | IC50 ([1]; listed as A) | IC50 ([1]; listed as F) |
| --- | --- | --- | --- | --- | --- | --- | --- | --- | --- | --- |
| C=C1C(=O)OC2C1CCC(C)(O)C13C=CC(C)(C21)C1(C3)C(=O)OC2C3C(C)=CC(=O)C3=C(C)CC(OC(=O)C=C(C)C)C21 (stereo not drawn) [Arteminolide B] | 5.2 µM | soluble | insoluble | 0.4 µM |  |  |  |  |  |  |
| C=C1C(=O)OC2C1CCC(C)(O)C13C=CC(C)(C21)C1(C3)C(=O)OC2C3C(C)=CC(=O)C3=C(C)CC(OC(=O)/C(C)=C\C)C21 (stereo not drawn) [Arteminolide C] |  | soluble | insoluble |  | 0.5 µM | 0.74 µM |  |  |  |  |
| C=C1C(=O)OC2C1CCC(C)(O)C13C=CC(C)(C21)C1(C3)C(=O)OC2C3C(C)=CC(=O)C3=C(C)CC(OC(=O)/C(C)=C\C)C21 (stereo not drawn) [Arteminolide E] |  |  | insoluble |  |  |  | 20 µM | 150 µM |  |  |
| C=C1C(=O)OC2C1CCC(C)(O)C13C=CC(C)(C21)C1(C3)C(=O)OC2C3C(C)=CC(=O)C3=C(C)CC(OC(=O)/C(C)=C/C)C21 (stereo not drawn) [Arteminolide D] | 6.2 µM | soluble | insoluble | 0.63 µM |  |  |  |  |  |  |
| C=C1C(=O)OC2C1CCC(C)(O)C13C=CC(C)(C21)C1(C3)C(=O)OC2C3C(C)=CC(=O)C3=C(C)CC(OC(=O)CC(C)C)C21 (stereo not drawn) [Arteminolide A] |  |  |  | 0.38 µM |  |  |  |  | 5.4 µM |  |
| C=C1C(=O)OC2C1CCC(C)(O)C13C=CC(C)(C21)C1(C3)C(=O)OC2C3C(C)=CC(=O)C3=C(C)CC(OC(=O)CC(C)C)C21 (stereo not drawn) [Arteminolide F] |  | soluble | insoluble | 160 µM |  |  |  |  |  | 24 µM |
